Assay results: US9314506B2, “Methods for increasing insulin secretion by co-stimulation of corticotropin-releasing factor receptors” (Research Development Foundation, priority 2011, dated 2016)

What was measured:
Human islets = assay: Insulin secretion from cultured human islets (insulin ELISA); format: cell-based; settings: FIG. 1; for Insulin secretion, single agonist: human islets, 60 min stimulation with glucose and peptide, single CRF receptor agonist added
Description: Human islets were handpicked twice and cultured overnight in CMRL-1066 medium (Invitrogen™) supplemented with 10% fetal bovine serum (FBS) and penicillin/streptomycin at 37° C., 5% CO2. Islets were starved in RPMI 1640 medium supplemented with 1.4 mM glucose and 0.1% BSA for 60 min and then were transferred into 1.2 mL of medium (RPMI 1640 supplemented with 2.8 mM glucose, 0.1% BSA) in 24-well plates at 100 islets/well. After 60 min, 600 μL of medium was collected for the determination of basal insulin release, and then islets were stimulated for 60 min with glucose and peptide as indicated in RPMI 1640 containing 0.1% BSA. Samples were diluted 20 times in RPMI 1640 with 0.1% BSA and were stored at −20° C. until determination of insulin concentrations with an insulin ELISA kit (Mercodia AB).
Peptides used in the studies were ovine CRF (oCRF), a selective CRF-R1 agonist; human Urocortin 3 (hUcn 3), a selective CRF-R2 agonist; antalarmin, a selective CRF-R1 antagonist; and astressin2-B, a selective CRF-R2 antagonist. […] Insulin secretion was enhanced by addition of either a CRF1 receptor agonist (oCRF) or a CRF2 receptor agonist (hUcn 3). […] The synergistic enhancement was inhibited by the addition of either a CRF1 receptor antagonist (antalarmin) or a CRF2 receptor antagonist (astressin2-B) to the cells (FIG. 1).

[1] = system: pancreatic beta cell mass; assay: Beta cell mass in doxycycline-inducible, beta cell-specific Ucn 1 transgenic mice; format: in vivo; settings: bitransgenic mouse, doxycycline for 6 weeks (21 days to 9 weeks of age), vs single transgenic controls on dox or bitransgenic without dox; FIG. 5
Source text: A transgenic mouse model that features beta cell-specific, doxycycline-inducible expression of Ucn 1 was generated by routine transgenic techniques. Single transgenic mice were obtained comprising either an expressible tetracycline transactivator (tTA) protein under the control of a pancreas-specific Insulin2 promoter (Jax Stock#008250 STOCK Tg(Ins2-rtTA)2Efr/J) or expressible Ucn1 under the control of a tTA protein-activated promoter (see, e.g., Sun et al., 2007 and Mallo, 2006). Single transgenic mice were crossed to generate the bitransgenic mice referenced in the studies. Thus, transgenic Ucn 1 expression in beta cells requires the presence of two transgenic cassettes as well as the administration of doxycycline. […] Bitransgenic animals, along with single transgenic controls, were administered doxycyline continuously as indicated from 21 days until 9 weeks of age. […] Sections were mounted in fluorescence mounting media containing dapi counterstain. Each section was scanned and the total pancreas surface area (based on the dapi counterstain) and the total beta cell surface area (based on the insulin-Cy3 stain) were quantified using standard morphometry techniques using Metamorph software. Beta cell area in each animal was expressed as the insulin+ surface area as a percentage of the total surface area (FIG. 5).

Molecule | Insulin secretion, single agonist (Human islets) | also measured
CCCCN(CC)c1nc(C)nc2c1c(C)c(C)n2-c1c(C)cc(C)cc1C [antalarmin] |  | Effect of antagonist on the synergistic enhancement of insulin secretion (Human islets; human islets co-stimulated with CRF1 and CRF2 receptor agonists, antagonist added): inhibited
hUcn 3: human Urocortin 3, a selective CRF-R2 agonist (FTLSLDVPTNIMNLLFNIAKAKNLRAQAAANAHLMAQI) | enhanced | 
oCRF: ovine CRF, a selective CRF-R1 agonist (SQEPPISLDLTFHLLREVLEMTKADQLAQQAHSNRKLLDIA) | enhanced | 
Ucn 1: Urocortin 1, agonist of both CRF1 and CRF2 receptors, expressed transgenically in mouse beta cells under doxycycline control (protein, listed as Homo sapiens) MRQAGRAALLAALLLLVQLCPGSSQRSPEAAGVQDPSLRWSPGARNQGGGARALLLLLAERFPRRAGPGRLGLGTAGERPRRDNPSLSIDLTFHLLRTLLELARTQSQRERAEQNRIIFDSVGK |  | Beta cell mass (insulin+ surface area as a percentage of total pancreas surface area) [1]: robust increase
